From patent US20040219112A1, “Method of whitening teeth, tooth whitening composition and tooth whitening set” (priority 2001, published 2004) come the findings set out here.

The nature of experiment [1]: Whitening of extracted human tooth enclosed in PP non-woven sheet coated with gel of 50% whitening compound, L*a*b* (CIE) whiteness. Set-up: key to Effect (3): whiteness (Δ|L|+Δ|b|) of the tooth / Effect (4): prolonged effect, whiteness (Δ|L|+Δ|b|) of the tooth: whiteness = Δ|L|+Δ|b| (CIE L*a*b*), change before vs after treatment. Particulars: gel of 50% compound; for Effect (4): prolonged effect, whiteness (Δ|L|+Δ|b|) of the tooth / Effect (3): whiteness (Δ|L|+Δ|b|) of the tooth: 0.5% jellan gum, 49.5% water; for Effect (4): prolonged effect, whiteness (Δ|L|+Δ|b|) of the tooth: measured after immersion in water (10 ml, 37° C.) for 1 hour; for Effect (3): whiteness (Δ|L|+Δ|b|) of the tooth: measured immediately after 1 hour at 37° C.; for Result (prolonged effect rating): rating of prolonged effect after 1 hour in water. As to the method:
An experiment was conducted as follows with an extracted human tooth which had previously been examined for L*a*b* values (CIE). The tooth was enclosed in a sheet of non-woven fabric of PP coated with a gel composed of 50% of the whitening compound specified below, 0.5% of jellan gum, and 49.5% of water, and the resulting object was allowed to stand at 37° C. for 1 hour in a closed glass bottle. The tooth was examined again for L*a*b* values (CIE). The ΔL and Δb values measured before and after treatment were used to calculate the whiteness (Δ|L|+Δ|b|) of the tooth, which is a measure of the effect (3).
The tooth which had been processed as mentioned above was again allowed to stand at 37° C. for 1 hour in a closed glass bottle containing 10 ml of water at 37° C. Then, the tooth was examined again for L*a*b* values (CIE). The ΔL and Δb values measured before and after treatment were used to calculate the whiteness (Δ|L|+Δ|b|) of the tooth, which is a measure of the prolonged effect (4).

A short description of experiment [2]: Whitening of extracted human tooth enclosed in absorbent cotton impregnated with liquid compound (100%), L*a*b* (CIE) whiteness. Particulars: compound conc. 100%; for Effect (2): prolonged effect, whiteness (Δ|L|+Δ|b|) of the tooth: measured after immersion in water (10 ml, 37° C.) for 1 hour; for Effect (1): whiteness (Δ|L|+Δ|b|) of the tooth: measured immediately after immersion in the compound for 1 hour at 37° C.; for Result (prolonged effect rating): rating of prolonged effect after 1 hour in water. On the procedure: An experiment was conducted as follows with an extracted human tooth which had previously been examined for L*a*b* values (CIE). The tooth was enclosed in absorbent cotton impregnated with a liquid compound (in 100% concentration) shown below, and the resulting object was allowed to stand at 37° C. for 1 hour in a closed glass bottle. The tooth was examined again for L*a*b* values (CIE). The ΔL and Δb values measured before and after treatment were used to calculate the whiteness (Δ|L|+Δ|b|) of the tooth, which is a measure of the effect (1).
The tooth which had been processed as mentioned above was again allowed to stand at 37° C. for 1 hour in a closed glass bottle containing 10 ml of water at 37° C. Then, the tooth was examined again for L*a*b* values (CIE). The ΔL and Δb values measured before and after treatment were used to calculate the whiteness (Δ|L|+Δ|b|) of the tooth, which is a measure of the prolonged effect (2).

For `CCO` [Ethanol], in experiment [1], the “Effect (4): prolonged effect, whiteness (Δ|L|+Δ|b|) of the tooth” value turned out to be 1.9; the “Effect (3): whiteness (Δ|L|+Δ|b|) of the tooth” value worked out at 1.5; the “Result (prolonged effect rating)” value is “⊚ (⊚ denotes a significant prolonged effect with a value larger than 1)”. In addition, in experiment [2], the “Effect (2): prolonged effect, whiteness (Δ|L|+Δ|b|) of the tooth” value is listed as 3.0; the “Effect (1): whiteness (Δ|L|+Δ|b|) of the tooth” value is given as 12.8; the “Result (prolonged effect rating)” value is on record as “⊚ (⊚ denotes a significant prolonged effect with a value larger than 1)”.

With `CC(C)O` [Isopropyl alcohol], in experiment [1], the “Effect (4): prolonged effect, whiteness (Δ|L|+Δ|b|) of the tooth” value is 0.5; the “Effect (3): whiteness (Δ|L|+Δ|b|) of the tooth” value is 1.1; the “Result (prolonged effect rating)” value is reported as “◯ (◯ denotes a prolonged effect with a value larger than 0.5)”. Further, in experiment [2], the “Effect (2): prolonged effect, whiteness (Δ|L|+Δ|b|) of the tooth” value was 8.3; the “Effect (1): whiteness (Δ|L|+Δ|b|) of the tooth” value is 15.8; the “Result (prolonged effect rating)” value is “⊚ (⊚ denotes a significant prolonged effect with a value larger than 1)”.

For Polyethylene glycol #200 [PEG #200], in experiment [1], the “Effect (4): prolonged effect, whiteness (Δ|L|+Δ|b|) of the tooth” value was determined as 0.9; the “Effect (3): whiteness (Δ|L|+Δ|b|) of the tooth” value turned out to be 0.6; the “Result (prolonged effect rating)” value is on record as “◯ (◯ denotes a prolonged effect with a value larger than 0.5)”. Also, in experiment [2], the “Effect (2): prolonged effect, whiteness (Δ|L|+Δ|b|) of the tooth” value was determined as 4.8; the “Effect (1): whiteness (Δ|L|+Δ|b|) of the tooth” value is 12.5; the “Result (prolonged effect rating)” value is given as “⊚ (⊚ denotes a significant prolonged effect with a value larger than 1)”.

In the case of Polyethylene glycol #400 [PEG #400], in experiment [1], the “Effect (4): prolonged effect, whiteness (Δ|L|+Δ|b|) of the tooth” value came to 0.6; the “Effect (3): whiteness (Δ|L|+Δ|b|) of the tooth” value is 0.7; the “Result (prolonged effect rating)” value is on record as “◯ (◯ denotes a prolonged effect with a value larger than 0.5)”. In addition, in experiment [2], the “Effect (2): prolonged effect, whiteness (Δ|L|+Δ|b|) of the tooth” value came out at 1.5; the “Effect (1): whiteness (Δ|L|+Δ|b|) of the tooth” value is recorded as 8.1; the “Result (prolonged effect rating)” value was “⊚ (⊚ denotes a significant prolonged effect with a value larger than 1)”.

Polyethylene glycol #600 [PEG #600]: in experiment [1], the “Effect (4): prolonged effect, whiteness (Δ|L|+Δ|b|) of the tooth” value turned out to be 0.8; the “Effect (3): whiteness (Δ|L|+Δ|b|) of the tooth” value is reported as 0.7; the “Result (prolonged effect rating)” value is listed as “◯ (◯ denotes a prolonged effect with a value larger than 0.5)”. In experiment [2], the “Effect (2): prolonged effect, whiteness (Δ|L|+Δ|b|) of the tooth” value came to 0.6; the “Effect (1): whiteness (Δ|L|+Δ|b|) of the tooth” value was 12.0; the “Result (prolonged effect rating)” value is “◯ (◯ denotes a prolonged effect with a value larger than 0.5)”.

Regarding `CC(O)CCO` (stereo not drawn) [1,3-butylene glycol], in experiment [1], the “Effect (4): prolonged effect, whiteness (Δ|L|+Δ|b|) of the tooth” value stood at 0.5; the “Effect (3): whiteness (Δ|L|+Δ|b|) of the tooth” value came out at 0.9; the “Result (prolonged effect rating)” value is listed as “◯ (◯ denotes a prolonged effect with a value larger than 0.5)”. Moreover, in experiment [2], the “Effect (2): prolonged effect, whiteness (Δ|L|+Δ|b|) of the tooth” value is listed as 5.6; the “Effect (1): whiteness (Δ|L|+Δ|b|) of the tooth” value was determined as 11.3; the “Result (prolonged effect rating)” value is reported as “⊚ (⊚ denotes a significant prolonged effect with a value larger than 1)”.

As for `OCCOCCO` [Diethylene glycol], in experiment [1], the “Effect (4): prolonged effect, whiteness (Δ|L|+Δ|b|) of the tooth” value is listed as 1.1; the “Effect (3): whiteness (Δ|L|+Δ|b|) of the tooth” value is given as 1.3; the “Result (prolonged effect rating)” value is reported as “⊚ (⊚ denotes a significant prolonged effect with a value larger than 1)”. Moreover, in experiment [2], the “Effect (2): prolonged effect, whiteness (Δ|L|+Δ|b|) of the tooth” value was 2.6; the “Effect (1): whiteness (Δ|L|+Δ|b|) of the tooth” value came to 14.4; the “Result (prolonged effect rating)” value is given as “⊚ (⊚ denotes a significant prolonged effect with a value larger than 1)”.

On to `CC(O)CO` (stereo not drawn) [Propylene glycol], for which, in experiment [1], the “Effect (4): prolonged effect, whiteness (Δ|L|+Δ|b|) of the tooth” value is 1.0; the “Effect (3): whiteness (Δ|L|+Δ|b|) of the tooth” value was determined as 1.0; the “Result (prolonged effect rating)” value is “⊚ (⊚ denotes a significant prolonged effect with a value larger than 1)”. Moreover, in experiment [2], the “Effect (2): prolonged effect, whiteness (Δ|L|+Δ|b|) of the tooth” value is 2.8; the “Effect (1): whiteness (Δ|L|+Δ|b|) of the tooth” value turned out to be 8.4; the “Result (prolonged effect rating)” value is listed as “⊚ (⊚ denotes a significant prolonged effect with a value larger than 1)”.

With PEG #300, in experiment [1], the “Effect (4): prolonged effect, whiteness (Δ|L|+Δ|b|) of the tooth” value is 0.8; the “Effect (3): whiteness (Δ|L|+Δ|b|) of the tooth” value came to 1.8; the “Result (prolonged effect rating)” value is on record as “◯ (◯ denotes a prolonged effect with a value larger than 0.5)”. Besides, in experiment [2], the “Effect (2): prolonged effect, whiteness (Δ|L|+Δ|b|) of the tooth” value stood at 3.7; the “Effect (1): whiteness (Δ|L|+Δ|b|) of the tooth” value was found to be 10.7; the “Result (prolonged effect rating)” value is on record as “⊚ (⊚ denotes a significant prolonged effect with a value larger than 1)”.

As to `OCCO` [Ethylene glycol], in experiment [1], the “Effect (4): prolonged effect, whiteness (Δ|L|+Δ|b|) of the tooth” value stood at 0.7; the “Effect (3): whiteness (Δ|L|+Δ|b|) of the tooth” value worked out at 1.6; the “Result (prolonged effect rating)” value is recorded as “◯ (◯ denotes a prolonged effect with a value larger than 0.5)”. Further, in experiment [2], the “Effect (2): prolonged effect, whiteness (Δ|L|+Δ|b|) of the tooth” value came to 2.6; the “Effect (1): whiteness (Δ|L|+Δ|b|) of the tooth” value was 9.3; the “Result (prolonged effect rating)” value was “⊚ (⊚ denotes a significant prolonged effect with a value larger than 1)”.
